From patent US20260176289A1, “SMALL MOLECULE INHIBITORS OF KRAS PROTEINS” (Merck Sharp & Dohme LLC, priority 2022, published 2026)
Where two headings read alike, the source gives them in different places.

Key:
[1] = biological target: KRAS-G13D (Homo sapiens, UniProt P01116, G13D); test: SOS-catalyzed nucleotide exchange assay (Procedure A, TR-FRET), KRAS-G13D; assay type: biochemical; conditions: nucleotide exchange, Procedure A; read-out: KRAS G13D GNE IC50
[2] = system: AsPC-1 cells; test: Cellular phospho-ERK assay, AsPC-1 cells (homozygous KRAS-G12D); assay type: cell-based; conditions: read-out: AsPC1 pERK IC50
Method in brief: (§1)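 10k–15k cells/well, o/n attach; cpd 2 h, 37 °C, 10-pt 1:3 from 30 μM final; lyse with protease/phosphatase inhibitors 30 min RT; multiplex SureFire p-ERK + total ERK; IC50 via 4PL on ratio.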

[3] = biological target: KRAS-G12C (C51S/C80L/C118S) (Homo sapiens, UniProt P01116, C118S/C51S/C80L/G12C); test: SOS-catalyzed nucleotide exchange assay (Procedure A, TR-FRET), KRAS-G12C; assay type: biochemical; conditions: nucleotide exchange, Procedure A; read-out: KRAS G12C GNE IC50
Method in brief: (§2)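 Biotinylated RAS (KRAS-G12C carries C51S/C80L/C118S; others WT background) preloaded with Bodipy-GDP plus Tb-streptavidin, preincubated with compound 60 min at RT, then human SOS and 3 mM GTP added. Final RAS/SOS: G12C 3 nM/40 nM, 60 min; WT 1 nM/40 nM, 60 min; G12V 1.25 nM/160 nM, 90 min; NRAS 1.25 nM/40 nM, 60 min. TR-FRET 520/495 ratio normalized to DMSO and saturating inhibitor; 10-point curves fit four-parameter logistic.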

[4] = biological target: KRAS-WT (Homo sapiens, UniProt P01116); test: SOS-catalyzed nucleotide exchange assay (Procedure A, TR-FRET), KRAS-WT; assay type: biochemical; conditions: nucleotide exchange, read-out: KRAS WT GNE IC50
Method in brief: as §2

[5] = system: SW620 cells; test: Cellular phospho-ERK assay, SW620 cells (homozygous KRAS-G12V); assay type: cell-based; conditions: read-out: SW620 pERK IC50
Method in brief: as §1

[6] = system: MKN-1 cells; test: Cellular phospho-ERK assay, MKN-1 cells (amplified wild-type KRAS); assay type: cell-based; conditions: read-out: MKN1 pERK IC50
Method in brief: as §1

[7] = biological target: KRAS-G12V (Homo sapiens, UniProt P01116, G12V); test: SOS-catalyzed nucleotide exchange assay (Procedure A, TR-FRET), KRAS-G12V; assay type: biochemical; conditions: nucleotide exchange, read-out: KRAS G12V GNE IC50
Method in brief: as §2

[8] = biological target: KRAS-G12D (Homo sapiens, UniProt P01116, G12D); test: SOS-catalyzed nucleotide exchange assay (Procedure A, TR-FRET), KRAS-G12D; assay type: biochemical; conditions: nucleotide exchange, read-out: KRAS G12D GNE IC50
Method in brief: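 Signal ratio (520/495 nm, excitation 340 nm) reports Bodipy-GDP retention on biotinylated RAS after SOS-catalyzed exchange with 3 mM GTP. SOS was 40 nM, except 160 nM for G12V. Room-temperature exchange lasted 60 min (90 min for G12V), following a 60 min compound preincubation.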

[9] = Homo sapiens, ASPC1, 2 h, 2 hours compound incubation
[10] = Homo sapiens, SW-620, 2 hours compound incubation
[11] = Homo sapiens, 2 hours compound incubation
[12] = Homo sapiens, ASPC1, 2 h, KRAS-G12D, 2 hours
[13] = Homo sapiens, SW-620, KRAS-G12V, 2 hours
[14] = Homo sapiens, amplified wild-type KRAS, 2 hours

Row | IC50 [2, 9] [nM] | IC50 [5, 10] [nM] | IC50 [6, 11] [nM] | Molecule | IC50 [1] [nM] | IC50 [3] [nM] | IC50 [4] [nM] | IC50 [7] [nM] | IC50 [8] [nM] | IC50 ([2]; 2 hours compound incubation) [nM] | IC50 ([5]; 2 hours compound incubation) [nM] | IC50 ([6]; 2 hours compound incubation) [nM] | IC50 [2, 12] [nM] | IC50 [5, 13] [nM] | IC50 [6, 14] [nM]
1 | 119 | 120 | 155 | CC(C)c1c(Cl)cc2[nH]ncc2c1-c1nccc2c1sc1nc(OC[C@@]34CCCN3C[C@H](F)C4)nc(N3CCOC[C@@](C)(O)C3)c12 [Ex-145, (6S)-4-(8-(6-chloro-5-isopropyl-1H-ind-azol-4-yl)-2-(((2R, 7aS)-2-fluorotetra-hydro-1H-pyrrol-izin-7a(5H)-yl)meth-oxy)pyrido[4′,3′:4,5]thieno[2,3-d]pyr-imidin-4-yl)-6-meth-yl-1,4-oxazepan-6-ol] | 27.8 | 44.3 | 58.9 | 73.2 | 34.3 |  |  |  |  |  | 
2 |  |  |  | (6S)-4-(8-(6-chloro- 5-cyclopropyl-1H- indazol-4-yl)-2- (((6'R,7a′R)-6′- fluorodihydro- 1′H,3′H-spiro[cyclo- propane-1,2′-pyr- rolizin]-7a′(5′H)- yl)methoxy)pyrido [4′,3′:4,5]thieno[2,3- d]pyrimidin-4-yl)-6- methyl-1,4-oxaze- pan-6-ol [Ex-218] | 7.46 | 77.4 | 6.76 | 8.69 | 3.42 | 31.9 | 20.2 | 37.4 |  |  | 
3 |  |  |  | CN1CCC[C@H]1COc1nc(N2CCOC[C@@](C)(O)C2)c2c(n1)sc1c(-c3c(C4CC4)c(C(F)(F)F)cc4[nH]ncc34)nccc12 [Ex-79, (6S)-4-(8-(5-cyclopropyl-6-(trifluoromethyl)-1H-indazol-4-yl)-2-(((S)-1-methylpyrrolidin-2-yl)methoxy)pyrido[4′,3′:4.5]thi-eno[2,3-d]pyrimidin-4-yl)-6-methyl-1,4-oxazepan-6-ol] | 27.9 | 57.9 | 8.2 | 10.8 | 5.84 |  |  |  | 23.2 | 8.94 | 16.2
4 | 35 | 12.3 | 20.1 | [2H]C1([2H])CC[C@]2(COc3nc(N4CCOC[C@@](C)(O)C4)c4c(n3)sc3c(-c5c(C6CC6)c(Cl)cc6[nH]ncc56)nccc34)N1C[C@H](F)C2([2H])[2H] [Ex-210, (6S)-4-(8-(6-chloro-5-cyclopropyl-1H-indazol-4-yl)-2-(((2R,7aS)-2-fluoro-tetrahydro-1H-pyrrolizin-7a(5H)-yl-1,1,5,5-d4)meth-oxy)pyrido[4′,3′: 4,5]thieno[2,3-d]pyrimidin-4-yl)-6-methyl-1,4-oxaze-pan-6-ol] | 12.7 | 13.4 | 12.2 | 14.1 | 4.71 |  |  |  |  |  | 
5 | 20.4 | 17 | 63.6 | C[C@@]1(O)COCCN(c2nc(OC[C@@]34CCCN3C/C(=C\F)C4)nc3sc4c(-c5c(C6CC6)c(Cl)cc6[nH]ncc56)nccc4c23)C1 [Ex-208, (6S)-4-(8-(6-chloro-5-cyclopropyl-1H-indazol-4-yl)-2-(((S,Z)-2-(fluoromethylene)tetrahydro-1H-pyrrolizin-7a(5H)-yl)methoxy)pyrido[4′,3′:4,5]thieno[2,3-d]pyrimidin-4-yl)-6-methyl-1,4-oxazepan-6-ol] | 20.2 | 44.5 | 5.79 | 11.1 | 2.44 |  |  |  |  |  | 
6 |  |  |  | C[C@@]1(O)COCCN(c2nc(OC[C@@]34CCCN3C[C@H](F)C4)nc3sc4c(-c5c(C6(F)CC6)c(Cl)cc6[nH]ncc56)nccc4c23)C1 [Ex-52, (6S)-4-(8-(6-chloro-5-(1-fluorocyclopropyl)-1H-indazol-4-yl)-2-(((2R,7aS)-2-fluorotetrahydro-1H-pyrrolizin-7a(5H)-yl)methoxy)pyrido[4′,3′-4,5]thi-eno[2,3-d]pyrimidin-4-yl)-6-methyl-1,4-oxazepan-6-ol] | 9.02 | 30.1 | 11.9 | 12.9 | 4.05 |  |  |  | 68.7 | 37.3 | 48.6
7 | 56.9 | 49.4 | 83 | C[C@@]1(O)COCCN(c2nc(OC[C@@]34CCCN3C[C@@]3(CC3(F)F)C4)nc3sc4c(-c5c(C6CC6)c(Cl)cc6[nH]ncc56)nccc4c23)C1 [Ex-211, (6S)-4-(8-(6-chloro-5-cyclopropyl-1H-indazol-4-yl)-2-(((1S,7a′S)-2,2-difluorodihydro-1′H,3′H-spiro[cyclo-propane-1,2′-pyrrol-izin]-7a′(5′H)-yl)-methoxy)pyrido [4′,3′:4,5]thieno[2,3-d]pyrimidin-4-yl)-6-methyl-1,4-oxaze-pan-6-ol] | 15 | 45.4 | 16.5 | 12.1 | 5.85 |  |  |  |  |  | 
8 | 51.9 | 22.7 | 44.8 | CC[C@@H]1CCCc2cc3[nH]ncc3c(-c3nccc4c3sc3nc(OC[C@@]56CCCN5C[C@H](F)C6)nc(N5CCOC[C@@](C)(O)C5)c34)c21 [Ex-176] | 12.5 | 10.5 | 19.8 | 11.6 | 6.22 |  |  |  |  |  | 
9 |  |  |  | C=C(C)c1c(C)cc2[nH]ncc2c1-c1nncc2c1sc1nc(OC[C@@]34CCCN3C[C@H](F)C4)nc(N3CCOC[C@@](C)(O)C3)c12 [Ex-278] | 20.3 | 74.9 | 46 | 30.4 | 14.6 |  |  |  | 364 | 103 | 98.2
10 |  |  |  | C[C@@]1(O)COCCN(c2nc(OC[C@@]34CCCN3C[C@H](F)C4)nc3sc4c(-c5c(C6CC6)c(C(F)(F)F)cc6[nH]ncc56)nccc4c23)C1 [Ex-76, (6S)-4-(8-(5-cyclopropyl-6-(trifluoromethyl)-1H-indazol-4-yl)-2-(((2R,7aS)-2-fluorotetrahydro-1H-pyrrolizin-7a(5H)-yl)methoxy)pyrido[4′,3′:4,5]thi-eno[2,3-d]pyrimidin-4-yl)-6-methyl-1,4-oxazepan-6-ol] | 7.22 | 55.8 | 8.47 | 20.4 | 5.46 |  |  |  | 24.1 | 18.5 | 28.1
11 |  |  |  | Cc1cc2[nH]ncc2c(-c2nccc3c2sc2nc(OC[C@@]45CCCN4C[C@H](F)C5)nc(N4CCOC[C@@](C)(O)C4)c23)c1C12CC(C1)C2 [Ex-43, (6S)-4-(8-(5-(bicyclo[1.1.1]pentan-1 yl)-6-methy1-1H-indazol-4-yl)-2-(((2R,7aS)-2-fluorotetrahydro-1H-pyrrolizin-7a(5H)-yl)methoxy)pyrido[4′,3′:4,5]thi-eno[2,3-d]pyrimidin-4-yl)-6-methyl-1,4-oxazepan-6-ol] | 17.5 | 24.3 | 44.4 | 26.8 | 13.9 |  |  |  | 130 | 62 | 145
12 | 41.7 | 73 | 53.2 | C[C@@]1(O)COCCN(c2nc(OC[C@@]34CCCN3C[C@H](F)C4)nc3sc4c(-c5c(C6CC6)c(Cl)cc6[nH]ncc56)nccc4c23)C1 [Ex-144, (6S)-4-(8-(6-chloro-5-cyclopropyl-1H-indazol-4-yl)-2-(((2R,7aS)-2-fluoro-tetrahydro-1H-pyr-rolizin-7a(5H)-yl)-methoxy)pyrido [4′,3′:4,5]thieno[2,3-d]pyrimidin-4-yl)-6-methyl-1,4-oxaze-pan-6-ol] | 10.7 | 46 | 14.6 | 14.3 | 6.2 |  |  |  |  |  | 
